Measured values: patent US6239171A, “Tocotrienols and tocotrienol-like compounds and methods for their use” (Lipogenics, Inc., priority 1998, dated 2001)

How the values were obtained:
HMG-CoA reductase = biological target: T1, HMG-CoA reductase (Homo sapiens, UniProt P04035); experiment: Hepatic HMG-CoA reductase activity in chickens fed supplemented diets; type: in vivo, chicken; settings: control diet + 50 ppm, 4 weeks
T1 construct: hepatocytes isolated from livers of 8-week old female chickens; endogenous in cells; host or cells: primary chicken hepatocytes
T1 sequence (P04035 1-888): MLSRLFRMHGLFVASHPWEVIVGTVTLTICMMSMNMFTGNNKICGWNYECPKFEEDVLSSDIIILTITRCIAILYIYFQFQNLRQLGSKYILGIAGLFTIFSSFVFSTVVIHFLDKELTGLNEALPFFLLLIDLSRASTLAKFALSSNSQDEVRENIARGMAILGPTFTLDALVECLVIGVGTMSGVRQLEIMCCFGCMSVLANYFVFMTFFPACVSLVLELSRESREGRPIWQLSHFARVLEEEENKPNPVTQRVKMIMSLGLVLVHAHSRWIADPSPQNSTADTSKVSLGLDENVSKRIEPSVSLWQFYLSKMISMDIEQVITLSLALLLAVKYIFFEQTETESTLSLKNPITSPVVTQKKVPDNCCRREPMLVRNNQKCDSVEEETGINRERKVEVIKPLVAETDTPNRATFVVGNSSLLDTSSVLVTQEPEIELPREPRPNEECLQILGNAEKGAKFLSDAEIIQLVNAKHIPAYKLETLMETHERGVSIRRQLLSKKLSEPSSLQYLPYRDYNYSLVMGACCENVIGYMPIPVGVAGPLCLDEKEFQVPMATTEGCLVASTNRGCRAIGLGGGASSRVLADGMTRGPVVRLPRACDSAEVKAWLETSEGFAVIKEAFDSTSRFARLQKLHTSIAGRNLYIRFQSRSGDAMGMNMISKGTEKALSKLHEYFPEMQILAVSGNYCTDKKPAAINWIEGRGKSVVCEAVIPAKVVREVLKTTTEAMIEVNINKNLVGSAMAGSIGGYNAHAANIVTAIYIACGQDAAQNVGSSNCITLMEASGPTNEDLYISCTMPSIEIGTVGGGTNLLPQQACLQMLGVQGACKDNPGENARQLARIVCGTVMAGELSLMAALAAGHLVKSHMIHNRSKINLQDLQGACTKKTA
Experimental: (§3) This example measured the effects of the TRF and its components on the hepatic enzymatic activity of HMG-CoA reductase and cholesterol 7α-hydroxylase. […] The amount of feed consumed ranged from 11.19-11.60 g per chicken and the feeding period was 4 weeks. The birds were fasted for a period of 36 hours and refed for 48 hours prior to sacrifice (at 0800 hours).

[1] = system: cholesterol 7α-hydroxylase; experiment: Hepatic cholesterol 7α-hydroxylase activity in chickens fed supplemented diets; type: in vivo, chicken; settings: control diet + 50 ppm, 4 weeks
Experimental: as §3

chickens = experiment: Plasma thromboxane B2 and platelet factor 4 in chickens fed supplemented diets; type: in vivo, chicken; settings: control diet + 50 ppm, 4 weeks
Excerpt: We next measured the effects of TRF and its components on serum levels of apolipoprotein (a)1, apolipoprotein B, triglycerides and glucose and the plasma levels of thromboxane B2 and platelet factor 4.

Fatty Acid Synthase = biological target: T2, Fatty Acid Synthase (Gallus gallus, UniProt P12276); experiment: Fatty acid synthase activity in isolated chicken hepatocytes; type: cell-based
T2 construct: hepatocytes isolated from livers of 8-week old female chickens; endogenous in cells; host or cells: primary chicken hepatocytes
Experimental: (§1) This study measured the effects of three tocotrienols isolated from rice bran on cholesterol-related enzyme activity in hepatocytes isolated from livers of 8-week old female chickens. The chickens were fed the chick mash diet for 8 weeks. They were then fasted for 40 hours and finally refed for 48 hours before sacrifice. The hepatocytes were then prepared following standard methods.
(§2) Each compound was isolated from TRF using the following protocol: A bond Elute amine column was equilibrated with 2 ml hexane. 10 mg of TRF (dissolved in 0.5 ml hexane) was bound to the amine column. The column was washed with 1 ml of hexane, then with 1 ml of 3% isopropanol in hexane. P-21 and P-25 were eluted off the column with 5% isopropanol in hexane. Then using 10% isopropanol in hexane, the impurity P-20 was eluted. α-tocotrienol was also tested.

[2] = system: cholesterol 7α-hydroxylase; experiment: Cholesterol 7α-hydroxylase activity in isolated chicken hepatocytes; type: cell-based
Experimental: as §1, §2

[3] = system: hypercholesterolemic swine; experiment: Total cholesterol, triglyceride and glucose concentrations in tissues of hypercholesterolemic swine; type: in vivo; settings: control diet + 50 ppm, 42 days
Experimental: Each group of three 5-month old swine was administered either a control diet or a control diet supplemented with 50 ppm of TRF or 50 ppm of an individual tocotrienol. […] After a 12 hour fast, serum and plasma samples were taken a 0 hrs, 21 days and 42 days from the start of the feeding period. After taking serum and plasma samples from the pigs at the end of the 42 day period, all of the swine were fasted for a total of 40 hours, followed by a 48 hour refeeding period. One swine from each group was sacrificed at that time and the liver, intestine, lung, heart, loin muscle, adipose tissue and ham muscle were removed.
We next determined the effect of tocotrienols on the total cholesterol, triglyceride and glucose concentrations in various tissues of hypercholesterolemic swine.

[4] = system: hypercholesterolemic swine; experiment: Body weight gain and feed conversion efficiency in hypercholesterolemic swine; type: in vivo; settings: control diet + 50 ppm
Experimental: Each group of three 5-month old swine was administered either a control diet or a control diet supplemented with 50 ppm of TRF or 50 ppm of an individual tocotrienol. The samples were prepared as described in Example 11. After a 12 hour fast, serum and plasma samples were taken a 0 hrs, 21 days and 42 days from the start of the feeding period. After taking serum and plasma samples from the pigs at the end of the 42 day period, all of the swine were fasted for a total of 40 hours, followed by a 48 hour refeeding period. One swine from each group was sacrificed at that time and the liver, intestine, lung, heart, loin muscle, adipose tissue and ham muscle were removed.

T2 sequence (P12276 2-2512 limits assumed): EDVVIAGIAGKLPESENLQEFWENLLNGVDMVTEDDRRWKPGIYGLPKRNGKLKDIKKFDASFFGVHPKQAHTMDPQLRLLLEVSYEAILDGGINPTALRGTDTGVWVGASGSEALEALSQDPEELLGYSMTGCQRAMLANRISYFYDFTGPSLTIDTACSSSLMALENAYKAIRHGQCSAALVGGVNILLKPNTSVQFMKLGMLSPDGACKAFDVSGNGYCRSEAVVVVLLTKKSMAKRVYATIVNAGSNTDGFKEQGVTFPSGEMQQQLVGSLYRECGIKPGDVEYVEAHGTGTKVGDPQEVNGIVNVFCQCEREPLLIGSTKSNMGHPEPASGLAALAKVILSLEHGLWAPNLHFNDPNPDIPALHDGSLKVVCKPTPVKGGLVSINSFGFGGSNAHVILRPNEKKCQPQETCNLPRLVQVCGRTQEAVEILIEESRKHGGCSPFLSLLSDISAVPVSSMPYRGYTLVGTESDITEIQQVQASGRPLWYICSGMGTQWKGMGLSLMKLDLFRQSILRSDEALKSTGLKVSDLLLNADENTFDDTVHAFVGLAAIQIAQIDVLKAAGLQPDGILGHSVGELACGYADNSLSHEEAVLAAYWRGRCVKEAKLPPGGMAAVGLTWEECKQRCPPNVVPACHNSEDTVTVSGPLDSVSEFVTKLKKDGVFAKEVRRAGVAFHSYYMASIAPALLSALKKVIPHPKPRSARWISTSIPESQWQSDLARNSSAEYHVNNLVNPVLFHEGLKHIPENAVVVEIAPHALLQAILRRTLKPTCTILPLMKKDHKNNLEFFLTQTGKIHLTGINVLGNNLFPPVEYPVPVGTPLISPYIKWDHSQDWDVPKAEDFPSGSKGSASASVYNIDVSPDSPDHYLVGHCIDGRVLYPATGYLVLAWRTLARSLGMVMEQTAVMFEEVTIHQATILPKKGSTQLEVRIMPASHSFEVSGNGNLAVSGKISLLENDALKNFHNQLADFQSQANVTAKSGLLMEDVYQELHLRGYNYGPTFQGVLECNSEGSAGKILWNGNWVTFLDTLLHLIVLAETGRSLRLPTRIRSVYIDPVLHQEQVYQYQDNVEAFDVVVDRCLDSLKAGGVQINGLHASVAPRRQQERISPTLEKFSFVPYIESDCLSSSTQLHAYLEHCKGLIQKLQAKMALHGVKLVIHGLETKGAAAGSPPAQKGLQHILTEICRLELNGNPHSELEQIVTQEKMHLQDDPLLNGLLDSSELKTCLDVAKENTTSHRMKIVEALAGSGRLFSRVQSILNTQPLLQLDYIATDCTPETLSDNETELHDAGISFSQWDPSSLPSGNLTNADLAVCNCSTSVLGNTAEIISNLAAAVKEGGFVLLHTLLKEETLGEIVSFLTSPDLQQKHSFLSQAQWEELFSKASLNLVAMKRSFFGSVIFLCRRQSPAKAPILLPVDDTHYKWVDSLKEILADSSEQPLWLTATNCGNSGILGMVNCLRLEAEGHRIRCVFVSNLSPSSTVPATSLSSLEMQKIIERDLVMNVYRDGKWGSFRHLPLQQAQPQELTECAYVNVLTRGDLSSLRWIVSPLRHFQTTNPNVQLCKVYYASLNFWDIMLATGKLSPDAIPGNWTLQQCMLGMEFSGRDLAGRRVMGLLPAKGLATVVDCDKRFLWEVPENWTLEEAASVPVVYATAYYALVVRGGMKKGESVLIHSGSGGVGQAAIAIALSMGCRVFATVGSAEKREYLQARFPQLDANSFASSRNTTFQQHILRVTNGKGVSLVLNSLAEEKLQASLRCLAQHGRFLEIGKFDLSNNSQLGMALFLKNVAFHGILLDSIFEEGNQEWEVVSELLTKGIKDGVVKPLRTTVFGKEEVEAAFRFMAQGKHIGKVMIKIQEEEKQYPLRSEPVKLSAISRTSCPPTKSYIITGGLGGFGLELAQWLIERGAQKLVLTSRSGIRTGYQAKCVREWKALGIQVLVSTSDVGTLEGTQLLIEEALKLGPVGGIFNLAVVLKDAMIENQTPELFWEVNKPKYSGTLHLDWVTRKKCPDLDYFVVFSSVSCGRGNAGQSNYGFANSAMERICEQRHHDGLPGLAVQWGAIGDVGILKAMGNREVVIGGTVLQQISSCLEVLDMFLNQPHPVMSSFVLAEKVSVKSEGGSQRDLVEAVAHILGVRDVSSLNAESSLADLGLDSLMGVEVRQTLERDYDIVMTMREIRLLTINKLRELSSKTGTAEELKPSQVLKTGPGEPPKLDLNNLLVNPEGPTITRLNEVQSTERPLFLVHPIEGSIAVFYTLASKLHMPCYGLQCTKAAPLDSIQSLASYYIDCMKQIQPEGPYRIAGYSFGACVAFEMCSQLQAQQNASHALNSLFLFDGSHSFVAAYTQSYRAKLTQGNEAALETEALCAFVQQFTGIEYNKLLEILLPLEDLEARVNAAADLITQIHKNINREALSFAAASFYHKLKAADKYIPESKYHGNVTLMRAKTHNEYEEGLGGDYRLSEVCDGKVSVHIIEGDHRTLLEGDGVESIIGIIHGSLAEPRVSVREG

`CC(C)=CCC/C(C)=C/CC/C(C)=C/CCC1(C)CCc2cc(O)ccc2O1` (stereo not drawn) [P21, 3,4-dihydro-2-methyl-2-(4,8,12-trimethyltrideca-3' (E),7'(E),11'-trienyl)-2H-1-benzopyran-6-ol] was tested, and the “HMG-CoA Reductase, percentage of control” value (HMG-CoA reductase) was 72.83%, the “Cholesterol 7α-Hydroxylase, percentage of control” value [1] was 112.43% and the “Cholesterol 7α-hydroxylase” value [1] was 11.49 nmol/min/mg. The “Platelet Factor 4” value (chickens) was 7.76 ng/mL, the “Platelet Factor 4, percentage of control” value (chickens) was 59.28% and the “Thromboxane B2” value (chickens) was 16.74 pg/mL. The “Thromboxane B2, percentage of control” value (chickens) was 64.78%, the “Fatty Acid Synthase” value (Fatty Acid Synthase; 10.0 μg/mL) was 14.3 nmol/min/mg and the “Fatty Acid Synthase, percentage of 0.0 μg/mL” value (Fatty Acid Synthase; 10.0 μg/mL) was 83.1%. The “Fatty Acid Synthase” value (Fatty Acid Synthase; 20.0 μg/mL) was 12.7 nmol/min/mg, the “Fatty Acid Synthase, percentage of 0.0 μg/mL” value (Fatty Acid Synthase; 20.0 μg/mL) was 73.8% and the “Fatty Acid Synthase” value (Fatty Acid Synthase; 40.0 μg/mL) was 11.8 nmol/min/mg. The “Fatty Acid Synthase, percentage of 0.0 μg/mL” value (Fatty Acid Synthase; 40.0 μg/mL) was 68.6%, the “Fatty Acid Synthase” value (Fatty Acid Synthase; 80.0 μg/mL) was 10.2 nmol/min/mg and the “Fatty Acid Synthase, percentage of 0.0 μg/mL” value (Fatty Acid Synthase; 80.0 μg/mL) was 59.3%. The “Cholesterol 7α-hydroxylase” value ([2]; 10.0 μg/mL) was 2.41 pmol/min/mg, the “Cholesterol 7α-hydroxylase, percentage of 0.0 μg/mL” value ([2]; 10.0 μg/mL) was 104.3% and the “Cholesterol 7α-hydroxylase” value ([2]; 20.0 μg/mL) was 3.40 pmol/min/mg. The “Cholesterol 7α-hydroxylase, percentage of 0.0 μg/mL” value ([2]; 20.0 μg/mL) was 103.9%, the “Cholesterol 7α-hydroxylase” value ([2]; 40.0 μg/mL) was 2.39 pmol/min/mg and the “Cholesterol 7α-hydroxylase, percentage of 0.0 μg/mL” value ([2]; 40.0 μg/mL) was 103.5%. For the same compound, the “Cholesterol 7α-hydroxylase” value ([2]; 80.0 μg/mL) was 1.37 pmol/min/mg, the “Cholesterol 7α-hydroxylase, percentage of 0.0 μg/mL” value ([2]; 80.0 μg/mL) was 102.6% and the “TOTAL CHOLESTEROL CONCENTRATION, Adipose Tissue” value [3] was 89.85 mg/100 gm. For the same compound, the “TOTAL CHOLESTEROL CONCENTRATION, Ham Muscle” value [3] was 79.51 mg/100 gm, the “TOTAL CHOLESTEROL CONCENTRATION, Heart” value [3] was 53.63 mg/100 gm and the “TOTAL CHOLESTEROL CONCENTRATION, Intestine” value [3] was 180.59 mg/100 gm. For the same compound, the “TOTAL CHOLESTEROL CONCENTRATION, Liver” value [3] was 136.70 mg/100 gm, the “TOTAL CHOLESTEROL CONCENTRATION, Loin Muscle” value [3] was 100.58 mg/100 gm and the “TOTAL CHOLESTEROL CONCENTRATION, Lung” value [3] was 75.68 mg/100 gm. The “TOTAL CHOLESTEROL, Adipose Tissue, percentage of control” value [3] was 82.13%, the “TOTAL CHOLESTEROL, Ham Muscle, percentage of control” value [3] was 79.51% and the “TOTAL CHOLESTEROL, Heart, percentage of control” value [3] was 83.13%. The “TOTAL CHOLESTEROL, Intestine, percentage of control” value [3] was 83.80%, the “TOTAL CHOLESTEROL, Liver, percentage of control” value [3] was 67.81% and the “TOTAL CHOLESTEROL, Loin Muscle, percentage of control” value [3] was 84.09%. For the same compound, the “TOTAL CHOLESTEROL, Lung, percentage of control” value [3] was 74.39%, the “TOTAL GLUCOSE CONCENTRATION, Adipose Tissue” value [3] was 16.67 mg/100 gm and the “TOTAL GLUCOSE CONCENTRATION, Ham Muscle” value [3] was 54.01 mg/100 gm. The “TOTAL GLUCOSE CONCENTRATION, Heart” value [3] was 44.17 mg/100 gm, the “TOTAL GLUCOSE CONCENTRATION, Intestine” value [3] was 62.50 mg/100 gm and the “TOTAL GLUCOSE CONCENTRATION, Liver” value [3] was 374.22 mg/100 gm. For the same compound, the “TOTAL GLUCOSE CONCENTRATION, Loin Muscle” value [3] was 55.45 mg/100 gm, the “TOTAL GLUCOSE CONCENTRATION, Lung” value [3] was 61.92 mg/100 gm and the “TOTAL GLUCOSE, Adipose Tissue, percentage of control” value [3] was 90.89%. For the same compound, the “TOTAL GLUCOSE, Ham Muscle, percentage of control” value [3] was 100.35%, the “TOTAL GLUCOSE, Heart, percentage of control” value [3] was 89.69% and the “TOTAL GLUCOSE, Intestine, percentage of control” value [3] was 86.84%. For the same compound, the “TOTAL GLUCOSE, Liver, percentage of control” value [3] was 92.35%, the “TOTAL GLUCOSE, Loin Muscle, percentage of control” value [3] was 77.84% and the “TOTAL GLUCOSE, Lung, percentage of control” value [3] was 92.51%. For the same compound, the “TOTAL TRIGLYCERIDES CONCENTRATION, Adipose Tissue” value [3] was 282.82 mg/100 gm, the “TOTAL TRIGLYCERIDES CONCENTRATION, Ham Muscle” value [3] was 182.16 mg/100 gm and the “TOTAL TRIGLYCERIDES CONCENTRATION, Heart” value [3] was 142.38 mg/100 gm. For the same compound, the “TOTAL TRIGLYCERIDES CONCENTRATION, Intestine” value [3] was 347.75 mg/100 gm, the “TOTAL TRIGLYCERIDES CONCENTRATION, Liver” value [3] was 386.25 mg/100 gm and the “TOTAL TRIGLYCERIDES CONCENTRATION, Loin Muscle” value [3] was 194.75 mg/100 gm. The “TOTAL TRIGLYCERIDES CONCENTRATION, Lung” value [3] was 165.47 mg/100 gm, the “TOTAL TRIGLYCERIDES, Adipose Tissue, percentage of control activity” value [3] was 64.91% and the “TOTAL TRIGLYCERIDES, Ham Muscle, percentage of control activity” value [3] was 98.03%. For the same compound, the “TOTAL TRIGLYCERIDES, Heart, percentage of control activity” value [3] was 98.72%, the “TOTAL TRIGLYCERIDES, Intestine, percentage of control activity” value [3] was 97.24% and the “TOTAL TRIGLYCERIDES, Liver, percentage of control activity” value [3] was 89.96%. The “TOTAL TRIGLYCERIDES, Loin Muscle, percentage of control activity” value [3] was 88.65%, the “TOTAL TRIGLYCERIDES, Lung, percentage of control activity” value [3] was 96.22% and the “increase of feed conversion efficiency” value [4] was 7%.
